Earlier results, collected in patent publication US20050266098A1, “Composition for treatment of a hydrofluoric acid burn” (priority 2004, published 2005).

Key:
[1] = system: hydrofluoric acid injury; conditions: soaks as source of calcium ions
[2] = 18° C.

Row | SMILES | epidermal response resulting from the treatment [1] | pKa [2] | pH ([2]; 98% aqueous solution)
1 | CC(=O)[O-].CC(=O)[O-].[Ca+2] [Calcium acetate] | negative epidermal response |  | 
2 | CC(=O)CCC(=O)O [Levulinic acid] |  | 4.64 | 6.2
